In patent US9139519B2, “Organonitro thioether compounds and medical uses thereof” (EPICENTRX, INC., priority 2011, dated 2015):

What was measured:
SCCVII tumor = assay: Anti-cancer assay: SCCVII tumor volume in C3H mice; format: in vivo; settings: male C3H mice with subcutaneous SCCVII tumors; 1.15 mg/mL in 5% DMSO/water, intraperitoneal, q.o.d. on Days 0, 2 and 4 (3 doses)
Procedure: Mice with SCC VII tumors were treated with Compound 1, which has the following chemical structure.
The Treatment Composition was Compound 1 in a water/DMSO carrier. The Treatment Composition was prepared by dissolving 2.3 mg of Compound 1 in 0.1 mL of DMSO and mixing the resultant solution with 1.9 mL of water to provide a solution containing 1.15 mg/mL of Compound 1. The concentration of dimethylsulfoxide (DMSO) in the Treatment Composition was 5%.
Male C3H mice were obtained from Charles River Laboratories and maintained under specific pathogen-free conditions. Mice were housed five animals per cage and autoclaved food and water was provided ad libitum. Cages were located in rooms having a temperature of 65±2 degrees Fahrenheit, a humidity of 50%±5%, and a 12-hour day-and-night light cycle. Mice were 7-8 weeks old, with a body weight in the range of 22-25 grams, at the time inoculated with tumor cells.
Mice were inoculated subcutaneously with 5×10^5 SCCVII tumor cells in 0.05 mL Hank's solution on the back. […] The length and width of the tumors were measured with calipers immediately before treatment and three times a week thereafter until the tumor volume reached at least four times (4×) the original pre-treatment volume. Tumor volume (mm^3) was calculated according to the formula: Tumor Volume=π/6×length×width^2 Part II: Results

[1] = Toxicity evaluation in healthy rats; format: in vivo; settings: for Clinical observations: femoral vein infusion
Procedure: Compound 1 was administered to healthy rats and the rats were evaluated for evidence of toxic side effects due to Compound 1. Experimental procedures and results are described below.
Two groups of 3 male rats each were given a 100 or 300 mg/kg dose of Compound 1 prepared in 0.9% saline solution. A third group of 3 rats were given saline alone. Doses were delivered via a femoral vein. The 100 mg/kg dose was delivered using a 10 mg/mL solution at a dose volume of 10 mL/kg and an infusion rate of 15 mL/hr. The 300 mg/kg dose was delivered using a 20 mg/mL solution at a dose volume of 15 mL/kg and an infusion rate of 15 mL/hr.

With `N[C@@H](CSCC(=O)N1CC([N+](=O)[O-])([N+](=O)[O-])C1)C(=O)O` [Compound 1] the “Tumor volume versus untreated control” value (SCCVII tumor) was “smaller than tumors in mice that did not receive the Treatment Composition”, the “Toxicity (overall conclusion)” value ([1]; healthy male rats, 100 or 300 mg/kg in 0.9% saline via femoral vein, observed for 24 hours) was “no significant toxicity was observed” and the Clinical observations ([1]; rats, 100 mg/kg dose, observed for 24 hours) was “No notable clinical observations”. The Clinical observations ([1]; rats, 300 mg/kg dose, observed for 24 hours) was “pale during the first 3 hours post dose”, the “Gross changes in the lungs at necropsy” value ([1]; rats, 100 or 300 mg/kg, necropsy after 24 hours) was “no gross changes in the lungs” and the “Kidney observation at necropsy” value ([1]; rats, 100 or 300 mg/kg, necropsy after 24 hours, significance undetermined) was “Mottled kidneys were observed in most rats”.
